Laboratory results as given in patent publication US8263344B2, “Compounds regulating calreticulin, KDEL receptor and/or Erp-57 cell surface exposure and uses thereof to evaluate the efficiency of a cancer treatment” (Institut Gustave Roussy, priority 2006, dated 2012).

What was measured:
HeLa, A549, HCT116 = test: CRT exposure on a panel of human tumour cell lines; assay type: cell-based
CT26 tumours [1] = test: Single intratumoural injection into established CT26 tumours, athymic mice; set-up: species or system nu/nu Balb/c mice; details: mouse, in vivo
CT26 tumour cells = test: Anti-tumour vaccination with treated (dying) CT26 cells and challenge with live tumour cells; assay type: in vivo, BALB/c mice; details: dying CT26 cells injected into one flank, rechallenge with live tumour cells in opposite flank 8 days later
CT26 tumours [2] = test: Single intratumoural injection into established CT26 tumours, immunocompetent mice; assay type: in vivo, BALB/c mice; details: established 14-day-old CT26 tumours
CT26 cells = test: Phagocytosis of tumour cells by dendritic cells (DC); assay type: cell-based, BALB/c mice; details: within a few hours after treatment
Description: BM cells were flushed from the tibias and femurs of BALB/c mice with culture medium composed of RPMI 1640 medium (Invitrogen Life Technologies) supplemented with 10% heat-inactivated FBS (Invitrogen), sodium pyruvate, 50 μM 2-ME (Sigma), 10 mM HEPES (pH 7.4), and penicillin/streptomycin (Invitrogen). After one centrifugation, BM cells were resuspended in Tris-ammonium chloride for 2 min to lyse RBC. After one more centrifugation, BM cells (1×10^6 cells/ml) were cultured in medium supplemented with 100 ng/ml recombinant mouse FLT3 ligand (R&D systems) in 6-well plates (Costar Corning). After 7 days, the non-adherent and loosely adherent cells were harvested with Versene, washed and transferred in 12-well plates (1.5×10^6 cells/plate) for cocultures with tumour cells.
In 12-well plates, […] adherent CT26 cells were labelled with Celltracker Green (Calbiochem) and then incubated with drugs. In some experiments viable CT26 were coated with 2 μg/10^6 cells of chicken anti-CRT antibody (ABR affinity bioreagents) or an isotype control for 30 min prior to washing and feeding to dendritic cells Cs. Alternatively CT26 cells were coated with 2 μg/10^6 cells of rCRT on ice for 30 min and washed twice prior to addition to dendritic cells. Cells were then harvested, washed three times with medium supplemented with FBS and cocultured with immature DC for 2 hours at a ratio of 1:1 and 1:5. At the end of the incubation, cells were harvested with versene, pooled with non-adherent cells present in the supernatant, washed and stained with CD11c-FITC antibody. Phagocytosis was assessed by FACS analysis of double positive cells. Phagocytic indexes refer to the ratio between values obtained at 4° C. and values obtained at 37° C. of co-incubation between DC and tumour cells.

HeLa cells = test: Surface ERp57 detection (immunofluorescence, flow cytometry); assay type: cell-based, human; details: 2 h; MTX 1 μM, Tau 150 nM
Description: HeLa cells were cultured on cover slips (in RPM1160 medium supplemented with 10% fetal calf serum, L-glutamine and antibiotics), in the absence (control) or in the presence of 1 μM mitoxantrone (MTX, Sigma) for 2 h. For the intracellular stainings, HeLa cells were fixed and permeabilised by means of Cytofix/Cytoperm kit from Becton Dickinson according to the manufacturer's instructions. For the surface stainings, HeLa cells were fixed with paraformadehyde (4% w/v) on ice for 5 min. […] Nuclei were labelled with DAPI mounting medium (Vectashield). Fluorescence microscopy was analyzed with a Leica IRE2 equipped with a DC300F camera. Size bars represent 10 μm.
HeLa cells were treated with or without mitoxantrone (MTX, 1 μM) or tautomycin (Tau, 150 nM, Sigma) for 2 h. Cells were washed twice with PBS and fixed in PFA (4% w/v) for 5 min. HeLa cells were stained with an antibody against Erp57 (pAb from Abcam, ab10827) at 1:200 dilution or isotype control, in staining buffer (PBS, 1% FCS) for 30 min on ice, followed by washing. An anti-rabbit Alexa fluor 488 immunoglobulin conjugate (Molecular Probes-Invitrogen) diluted at 1:500 was added for an additional 30 min on ice before washing and analysed by flow cytometry (FACScan, Becton Dickinson). […] The CellQuest software was used to analyse the mean fluorescence intensity (MFI) and the percentage of ERp57 positive cells.
FIG. 12: ERp57 exposure depends on the activation of a caspase. • (A) HeLa cells were treated with MTX (1 μM) for 2 h in the presence or absence of 50 μM zVAD.fmk. The MFI of surface Erp57 positive cells was analysed as described in FIG. 9. • (B) HCT116 parental cells stably transfected with either a vector encoding p35 (Stennicke et al., 2002; Date et al., 2003) or with a PCMV vector (Sigma) as control, were treated with MTX (1 μM) for 2 h. The MFI of surface Erp57 positive cells was analysed as described in FIG. 9. • (C) HCT116 cells were pre-incubated in the presence of 50 μM biotinylated VAD.fmk (Calbiochem) for 2 h. […]

CT26 cytoplasts = test: CRT exposure on enucleated cells (cytoplasts); assay type: cell-based, murine
Description: FIG. 5A: CRT exposure after anthracyclin treatment in the absence of a nucleus. Intact cells or enucleated cells (cytoplasts) were treated for 2 hours with mitoxantrone, followed by immunofluorescence detection of CRT exposure. Inserts show the effective removal of Hoechst 33342-stainable nuclei from the cytoplasts.
Trypsinized CT26 cells were enucleated as described in the publication of Andreau, K. et al. Contagious apoptosis facilitated by the HIV-1 envelope. Fusion-induced cell-to-cell transmission of a lethal signal. J. Cell Sci. 117, 5643-53 (2004). Briefly, cells were treated in 2 ml of complete RPMI medium containing cytochalasin B (10 μg/ml; Sigma) and DNase I (80 U/ml; Sigma). Cell suspension was adjusted to a final concentration of 5×10^6/ml and incubated at 37° C. for 45 minutes before being layered onto a previously prepared discontinuous Ficoll (Pharmacia) density gradient (3 ml of 100%, in 1 ml of 90% and 3 ml of 55% Ficoll Paque layer containing 5 μg/ml cytochalasin B and 40 U/ml DNase I; gradients were prepared in ultracentrifuge tubes and pre-equilibrated at 37° C. in a CO2 incubator overnight). […] Then the cell surface CRT was detected (see materials and methods) and the viability was determined by with propidium iodine staining (2 μg/ml, Sigma) for 5 min followed by cytofluorometric analysis. […] Phagocytosis was assessed by FACS analysis of double positive cells.

MCA205, B16F10, J558 = test: CRT exposure on a panel of murine tumour cell lines; assay type: cell-based

O=C1c2c(O)ccc(O)c2C(=O)c2c(NCCNCCO)ccc(NCCNCCO)c21 [mitoxantrone]
CRT exposure, human tumour cell lines (HeLa, A549, HCT116): induced CRT exposure | therapeutic effect of intratumoural injection, single agent, nu/nu mice (CT26 tumours [1]): no cure | immunogenic apoptosis / immunogenic cell death (protection against tumour growth) (CT26 tumour cells): elicited immunogenic cell death | therapeutic effect of intratumoural injection, single agent, immunocompetent mice (CT26 tumours [2]): permanent regression in some but not all cases | phagocytosis of treated tumour cells by DC (CT26 cells): acquired the property to be phagocytosed by DC | surface exposure of ERp57 (HeLa cells): appear on the surface | time to CRT exposure in enucleated cells (cytoplasts) (CT26 cytoplasts): ≤ 1 h | CRT exposure, murine tumour cell lines (MCA205, B16F10, J558): induced CRT exposure
